For test [1], the system named is CRC477 tumorgraft with FGFR1 amplification. As to the kind of experiment: Tumor growth in tumorgraft cohort CRC477. The class given is in vivo, NOD/SCID mice. The conditions noted are these: 6 mice per cohort, combination p<0.01, two-way ANOVA.
The test system of test [2] is CRC343 tumorgraft with MAP2K1 57K>N substitution. As to the kind of experiment: Tumor growth in tumorgraft cohort CRC343. The class given is in vivo, NOD/SCID mice. Particulars: CRC343, MAP2K1 57K>N; combination p<0.01, two-way ANOVA.
Test [3] deals with cetuximab-resistant tumors with 492S>R alterations in EGFR. The conditions noted are these: EGFR 492S>R, previous reports (32); cited from earlier work.
The test system of test [4] is CRC104 tumorgraft with EGFR 465G>E mutation. As to the kind of experiment: Tumor growth in tumorgraft cohort CRC104. Particulars: CRC104, EGFR 465G>E; n=6 for each arm; p<0.01, two-way ANOVA. The class given is in vivo, NOD/SCID mice.

Regarding `CCN1CCN(c2ccc(Nc3cc(N(C)C(=O)Nc4c(Cl)c(OC)cc(OC)c4Cl)ncn3)cc2)CC1` [BGJ398, 3-(2,6-dichloro-3,5-dimethoxy-phenyl)-1-{6-[4-(4-ethyl-piperazin-1-yl)-phenylamino]-pyrimidin-4-yl}-1-methyl-urea], the Tumor growth result in test [1] is recorded as “resistant”.

With `Cn1cnc2c(F)c(Nc3ccc(Br)cc3Cl)c(C(=O)NOCCO)cc21` [AZD6244], the Tumor growth entry in test [2] is recorded as “unproductive”.

For panitumumab, in test [3], the “Sensitivity of tumors to therapy” value was “sensitive”. The Tumor growth result in test [4] is given as “poorly sensitive”.

The values above are taken from patent publication US20240344136A1, “RESPONSE TO EGFR BLOCKADE” (The Johns Hopkins University, priority 2015, published 2024).
